Experimental data taken from patent US20210000842A1, “TETRACYCLINE MANAGEMENT OF EGFR INHIBITOR ASSOCIATED DERMATOSES” (Foamix Pharmaceuticals Ltd., priority 2015, published 2021).
Entries after “also recorded” stand apart in the source; their conditions may differ.

Legend:
[1] = Compatibility study of minocycline hydrochloride with excipients (visual inspection); format: physicochemical; conditions: for Compatibility with MCH: surfactants: MCH:excipient 1:50, surfactant solubilized in mineral oil; for Compatibility with MCH: surfactants / Compatibility with MCH: oily emollients and waxes: 25° C. and 40° C.; for Compatibility with Minocycline HCl: summary, tested after the storage for up to 3 weeks; for Compatibility with MCH: oily emollients and waxes: MCH:excipient 1:250 for oily emollients and 1:50 for waxes, max sixty days; for Compatibility with MCH: hydrophilic solvents: MCH: excipient 1:250, suspension at 25° C. and 40° C. for maximum of sixty days; for Compatibility with Minocycline HCl (discussion of compatibility studies): excipient named as label, storage up to 3 weeks; for Effect of added antioxidant on MCH degradation: MCH suspensions comprising water or non-compatible excipients; for Effect of added anti-oxidant on oxidation of Minocycline HCl: waterless medium of propylene glycol and PEG 200
Description: (§1) Active agent is incubated with various excipients individually at one or more temperatures and at different ratios of active agent to a single excipient for a certain fixed period or to the point where degradation was suspected. […] Visual inspection is a criterion for indication of compatibility. Any change of color indicates oxidation or degradation. […] Tests are also carried out with combinations of excipients.

[2] = Doxycycline Hyclate compatibility test; format: physicochemical; conditions: for Visual inspection after the storage at 25° C. / Visual inspection after the storage at 40° C. / Visual inspection after the storage at 50° C.: stored two weeks; for Effect of added anti-oxidant on oxidation of Doxycycline Hyclate: waterless medium of propylene glycol and PEG 200
Description: as §1
(§2) A similar compatibility study was conducted for Doxycycline Hyclate and Doxycycline Monohydrate.
(§3) Different compositions of hydrophilic and hydrophobic solvents containing Doxycycline Hyclate (Set I and Set II) and Doxycycline Monohydrate (Set III) were prepared by weighing the antibiotic in a glass vial and shaking overnight with each solvent investigated.
Group II included Doxycycline Hyclate mixed with various vehicles with addition of antioxidants like alpha tocopherol, butylated hydroxytoluene (BHT), and ascorbic acid.

[3] = Doxycycline Monohydrate compatibility test; format: physicochemical; conditions: for Visual inspection after the storage at 25° C. / Visual inspection after the storage at 40° C. / Visual inspection after the storage at 50° C. / Visual inspection at T-0: mixture of 1.04% w/w Doxycycline Monohydrate with the ingredient; for Visual inspection after the storage at 25° C. / Visual inspection after the storage at 40° C. / Visual inspection after the storage at 50° C.: stored two weeks; for Visual inspection at T-0: two weeks study; for Effect of added anti-oxidant on oxidation of Doxycycline Monohydrate: waterless medium of propylene glycol and PEG 200
Description: Active agent is incubated with various excipients individually at one or more temperatures and at different ratios of active agent to a single excipient for a certain fixed period or to the point where degradation was suspected. The period can be for example 3 or 7 or 14 or 21 or 28 days or longer. Visual inspection is a criterion for indication of compatibility. Any change of color indicates oxidation or degradation. […] Tests are also carried out with combinations of excipients.
as §2, §3
A similar compatibility test was performed on another form of Doxycycline—Doxycycline Monohydrate.

[4] = cited from earlier work
mouse = conditions: cited from earlier work
[5] = tested on: EGFR inhibitor-induced rash; conditions: cited from earlier work
[6] = tested on: patients treated with EGFR inhibitors; conditions: patients treated with the EGFR inhibitor (Erlotinib 150 mg QD); cited from earlier work
[7] = MCH:excipient 1:50, 25° C. and 40° C., visual inspection
[8] = summary, tested after the storage for up to 3 weeks
[9] = mixture of 1.04% w/w Doxycycline Hyclate with the ingredient
[10] = mixtures of 1.04% w/w, excipient named as label, storage at 25° C., 40° C. and 50° C. for two weeks
[11] = mixtures of 1.04% w/w, excipient named as label, storage at 25° C., 40° C. and 50° C. for two weeks, listed as Ethanol 95%
[12] = mixtures of 1.04% w/w, excipient named as label, storage at 25° C., 40° C. and 50° C. for two weeks, listed as ethanol 95%

## SPAN 80
[1]; visual inspection
  Compatibility with MCH: surfactants: incompatible

## Sorbitan sesquistearate
[1]; visual inspection
  Compatibility with MCH: surfactants: incompatible

## CCCCCCCCCCCCCCCCCCCCCCO [Behenyl alcohol]
[1]; [7]
  Compatibility with MCH: foam adjuvants: compatible

## C[Si]1(C)O[Si](C)(C)O[Si](C)(C)O[Si](C)(C)O[Si](C)(C)O1 [Cyclomethicone 5 NF]
[1]
  Compatibility with Minocycline HCl: Yes
[2]; [8]
  Compatibility with Doxycycline Hyclate: Yes
[3]; [8]
  Compatibility with Doxycycline Monohydrate: Yes

## CC(C)CCCCCCCCCCCCCCC(=O)O [Isostearic acid]
[1]; [7]
  Compatibility with MCH: foam adjuvants: not compatible
[1]
  Compatibility with Minocycline HCl: No
[2]; [8]
  Compatibility with Doxycycline Hyclate: Yes

## Doxycycline hyclate
[4]
  Lipid solubility: high degree
  Solubility in water: soluble

## SPAN 60
[1]; visual inspection
  Compatibility with MCH: surfactants: incompatible

## CC(C)CCCCCCCCCCCCCCCO [Isostearyl alcohol]
[1]; [7]
  Compatibility with MCH: foam adjuvants: compatible

## CCCCCCCCCCCCCCCCO [Cetyl alcohol]
[1]; [7]
  Compatibility with MCH: foam adjuvants: compatible

## CC1CCC(C(C)C)C(O)C1 (stereo not drawn) [Menthol]
[1]; [7]
  Compatibility with MCH: additives: compatible

## Cyclomethicone
[1]; visual inspection
  Compatibility with MCH: oily emollients and waxes: compatible

## CCCCCCCCCCCCCC(=O)OC(C)C [Isopropyl myristate]
[1]; visual inspection
  Compatibility with MCH: oily emollients and waxes: compatible

## SPAN 40
[1]; visual inspection
  Compatibility with MCH: surfactants: incompatible

## OCC(O)CO [Glycerin]
[1]; visual inspection
  Compatibility with MCH: hydrophilic solvents: incompatible
[1]
  Compatibility with Minocycline HCl (discussion of compatibility studies): intensive oxidation
  Compatibility with Minocycline HCl: No
[2]; [8]
  Compatibility with Doxycycline Hyclate: No
[3]; [8]
  Compatibility with Doxycycline Monohydrate: No

## C[C@H]1c2cccc(O)c2C(=O)C2=C(O)[C@]3(O)C(=O)C(C(N)=O)=C(O)[C@@H](N(C)C)[C@@H]3[C@@H](O)[C@@H]21 [Doxycycline, doxycycline]
mouse
  Oral acute toxicity LD50: 1007 mg/kg

## CO[C@H]1CO[C@H]2[C@@H]1OC[C@H]2OC [Dimethyl Isosorbide]
[1]; visual inspection
  Compatibility with MCH: hydrophilic solvents: incompatible
[1]
  Compatibility with Minocycline HCl: No
[2]; [9]
  Visual inspection after the storage at 25° C.: Yellow solution
  Visual inspection after the storage at 40° C.: Brownish orange
  Visual inspection after the storage at 50° C.: Orange solution
[2]; mixture of 1.04% w/w Doxycycline Hyclate with the ingredient, two weeks study
  Visual inspection at T-0: yellow solution
[2]; [8]
  Compatibility with Doxycycline Hyclate: No
[3]
  Visual inspection after the storage at 25° C.: orange solution
  Visual inspection after the storage at 40° C.: orange solution
  Visual inspection after the storage at 50° C.: Orange solution
  Visual inspection at T-0: yellow solution
[3]; [8]
  Compatibility with Doxycycline Monohydrate: No

## CCCCCCCCCCC(CO)CCCCCCCC (stereo not drawn) [Octyl dodecanol]
[1]; visual inspection
  Compatibility with MCH: oily emollients and waxes: compatible
[1]
  Compatibility with Minocycline HCl (discussion of compatibility studies): full compatibility; also recorded: compatible
  Compatibility with Minocycline HCl: Yes
[2]; [10]
  Compatibility with Doxycycline Hyclate: incompatibility
[2]; [8]
  Compatibility with Doxycycline Hyclate: No
[3]; [10]
  Compatibility with Doxycycline Monohydrate: incompatibility
[3]; [8]
  Compatibility with Doxycycline Monohydrate: No

## CCCCCCCCCCCCCCCCCC(=O)O [Stearic acid]
[1]; [7]
  Compatibility with MCH: foam adjuvants: compatible

## CCCCCCCC/C=C\CCCCCCCCO [Oleyl alcohol]
[1]; [7]
  Compatibility with MCH: foam adjuvants: compatible
[1]
  Compatibility with Minocycline HCl: Yes
[2]; [8]
  Compatibility with Doxycycline Hyclate: Yes

## CC(C)OC(=O)CCCCC(=O)OC(C)C [Diisopropyl adipate]
[1]
  Compatibility with Minocycline HCl: Yes
[2]; [8]
  Compatibility with Doxycycline Hyclate: Yes
[3]; [8]
  Compatibility with Doxycycline Monohydrate: No

## CC[C@@H]1/C=C(\C)C[C@H](C)C[C@H](OC)[C@H]2O[C@@](O)(C(=O)C(=O)N3CCCC[C@H]3C(=O)O[C@H](/C(C)=C/[C@@H]3CC[C@H](Cl)[C@H](OC)C3)[C@H](C)[C@@H](O)CC1=O)[C@H](C)C[C@@H]2OC [pimecrolimus]
[5]; half face study, cetuximab, after 2 weeks
  Lesion counts on treated side of the face: significantly less

## CCCCCCCCCCCCCCO [Myristyl alcohol]
[1]; [7]
  Compatibility with MCH: foam adjuvants: compatible
[1]
  Compatibility with Minocycline HCl: Yes
[2]; [8]
  Compatibility with Doxycycline Hyclate: Yes

## CCCOC(=O)c1cc(O)c(O)c(O)c1 [propyl gallate]
[1]
  Effect of added antioxidant on MCH degradation: did not prevent MCH degradation

## Cc1c(C)c2c(c(C)c1O)CC[C@@](C)(CCC[C@H](C)CCC[C@H](C)CCCC(C)C)O2 [alpha-tocopherol]
[1]
  Effect of added antioxidant on MCH degradation: did not prevent MCH degradation
  Effect of added anti-oxidant on oxidation of Minocycline HCl: did not prevent the oxidation
[2]
  Effect of added anti-oxidant on oxidation of Doxycycline Hyclate: did not prevent the oxidation
[3]
  Effect of added anti-oxidant on oxidation of Doxycycline Monohydrate: did not prevent the oxidation

## CCCCCCCCCCCCCCCCCCO [Stearyl alcohol]
[1]; [7]
  Compatibility with MCH: foam adjuvants: compatible
[1]
  Compatibility with Minocycline HCl: Yes
[2]; [8]
  Compatibility with Doxycycline Hyclate: Yes

## Sorbitan Monostearate
[1]
  Compatibility with Minocycline HCl: Yes
[2]; [8]
  Compatibility with Doxycycline Hyclate: Yes

## O=C1O[C@H]([C@@H](O)CO)C(O)=C1O [ascorbic acid]
[1]
  Effect of added anti-oxidant on oxidation of Minocycline HCl: did not prevent the oxidation
[2]
  Effect of added anti-oxidant on oxidation of Doxycycline Hyclate: did not prevent the oxidation
[3]
  Effect of added anti-oxidant on oxidation of Doxycycline Monohydrate: did not prevent the oxidation

## OCCCCO [Butylene Glycol]
[1]; visual inspection
  Compatibility with MCH: hydrophilic solvents: incompatible
[1]
  Compatibility with Minocycline HCl: No
[2]; [9]
  Visual inspection after the storage at 50° C.: Light orange solution
[2]; [8]
  Compatibility with Doxycycline Hyclate: No
[3]
  Visual inspection after the storage at 25° C.: Orange solution
  Visual inspection after the storage at 50° C.: black solution
[3]; [8]
  Compatibility with Doxycycline Monohydrate: No

## CCCCCCCC/C=C\CCCCCCCC(=O)O [Oleic acid]
[1]; [7]
  Compatibility with MCH: foam adjuvants: compatible

## C#Cc1cccc(Nc2ncnc3cc(OCCOC)c(OCCOC)cc23)c1 [Erlotinib]
[6]
  Patients who developed a grade 3 rash: 9%
  Patients who developed a rash in all grades: 75%

## Sorbitan Monolaurate
[1]
  Compatibility with Minocycline HCl: No
[2]; [9]
  Visual inspection after the storage at 25° C.: Brown solution
  Visual inspection after the storage at 40° C.: Brown solution
  Visual inspection after the storage at 50° C.: Black solution
[2]; [8]
  Compatibility with Doxycycline Hyclate: No
[3]
  Visual inspection after the storage at 25° C.: orange solution
  Visual inspection after the storage at 40° C.: Brown solution
  Visual inspection after the storage at 50° C.: brown solution
  Visual inspection at T-0: Brown mixture
[3]; [8]
  Compatibility with Doxycycline Monohydrate: No

## CCOCCOCCO [Diethylene glycol monoethyl ether]
[1]; visual inspection
  Compatibility with MCH: hydrophilic solvents: incompatible

## CC(C)OC(=O)CCCCC(=O)OC(C)C [Disopropyl adipate]
[1]; visual inspection
  Compatibility with MCH: oily emollients and waxes: compatible

## CCCCCCCCCCCCCCCC(=O)O [Palmitic acid]
[1]; [7]
  Compatibility with MCH: foam adjuvants: compatible

## O [water]
[1]; minimal quantities of water (100 μL) added
  Effect of addition of water on MCH suspended in compatible excipients: prompt degradation of MCH

## CCCCCCCCCCCCCCCCCC(=O)OCC(O)CO (stereo not drawn) [Glyceryl monostearate]
[1]; visual inspection
  Compatibility with MCH: surfactants: incompatible

## CCOC(=O)c1ccc(C#Cc2ccc3c(c2)C(C)(C)CCS3)nc1 [tazarotene, Ethyl 6-[2-(4,4-dimethylthiochroman-6-yl)ethynyl] nicotinate]
[5]; cream twice a day
  Clinical benefit on EGFR inhibitor-induced rash: no observed clinical benefit
  Patients in whom the rash was assessed as more severe: 10%

## C[S+](C)[O-] [Dimethyl Sulfoxide]
[1]; visual inspection
  Compatibility with MCH: hydrophilic solvents: incompatible

## CC(O)CO (stereo not drawn) [Propylene glycol]
[1]; visual inspection
  Compatibility with MCH: hydrophilic solvents: incompatible
[1]
  Compatibility with Minocycline HCl: No
[2]; [8]
  Compatibility with Doxycycline Hyclate: No
[3]; [8]
  Compatibility with Doxycycline Monohydrate: No

## CCO [Ethanol]
[1]; visual inspection
  Compatibility with MCH: hydrophilic solvents: incompatible
[1]
  Compatibility with Minocycline HCl (discussion of compatibility studies): changed their colour from yellow to orange
  Compatibility with Minocycline HCl: No
[2]; [11]
  Compatibility with Doxycycline Hyclate: stability
[2]; [12]
  Compatibility with Doxycycline Hyclate: stable
[2]; [8]
  Compatibility with Doxycycline Hyclate: Yes
[3]
  Visual inspection after the storage at 25° C.: Brown solution
  Visual inspection after the storage at 40° C.: Brown solution
  Visual inspection after the storage at 50° C.: Black solution
[3]; [11]
  Compatibility with Doxycycline Monohydrate: changed their colour from yellow to orange
[3]; [12]
  Compatibility with Doxycycline Monohydrate: oxidized
[3]; [8]
  Compatibility with Doxycycline Monohydrate: No
